From patent US8987195B2 (priority 2012, dated 2015)
Where two headings read alike, the source gives them in different places.

Assays:
[1] = test system: HCV genotype 1b replicon; assay: HCV replicon assay, genotype 1b replicon EC50; format: cell-based, Hepatitis C virus; conditions: Hepatitis C virus, genotype 1b replicon, read-out: EC50 [gt-1b]
How it was run: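 Cells harbouring a stable replicon are grown under G418 selection, then plated with test compound in G418-free medium for 24-48 hours. After washing and lysis, RNA or luciferase signal is measured and expressed as percent of DMSO control to give EC50.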

[2] = target: HCV NS3/4A protease genotype 1b (Hepatitis C virus genotype 1b, UniProt P26663); assay: HCV NS3/4A protease time-resolved fluorescence (TRF) assay, Ki against genotype 1b; format: biochemical; conditions: IC50 [gt-1b] (nM), NS3/4A genotype 1b, enzyme 0.2 nM
How it was run: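 Ki values come from IC50 fits corrected for substrate concentration and KM. The time-resolved fluorescence protease reaction used 25 nM peptide substrate, 2.5 h, room temperature, pH 7.5 HEPES buffer, after 30 min enzyme–inhibitor preincubation.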

HCV NS3/4A protease genotype 1b, sequence (P26663 1027-1657): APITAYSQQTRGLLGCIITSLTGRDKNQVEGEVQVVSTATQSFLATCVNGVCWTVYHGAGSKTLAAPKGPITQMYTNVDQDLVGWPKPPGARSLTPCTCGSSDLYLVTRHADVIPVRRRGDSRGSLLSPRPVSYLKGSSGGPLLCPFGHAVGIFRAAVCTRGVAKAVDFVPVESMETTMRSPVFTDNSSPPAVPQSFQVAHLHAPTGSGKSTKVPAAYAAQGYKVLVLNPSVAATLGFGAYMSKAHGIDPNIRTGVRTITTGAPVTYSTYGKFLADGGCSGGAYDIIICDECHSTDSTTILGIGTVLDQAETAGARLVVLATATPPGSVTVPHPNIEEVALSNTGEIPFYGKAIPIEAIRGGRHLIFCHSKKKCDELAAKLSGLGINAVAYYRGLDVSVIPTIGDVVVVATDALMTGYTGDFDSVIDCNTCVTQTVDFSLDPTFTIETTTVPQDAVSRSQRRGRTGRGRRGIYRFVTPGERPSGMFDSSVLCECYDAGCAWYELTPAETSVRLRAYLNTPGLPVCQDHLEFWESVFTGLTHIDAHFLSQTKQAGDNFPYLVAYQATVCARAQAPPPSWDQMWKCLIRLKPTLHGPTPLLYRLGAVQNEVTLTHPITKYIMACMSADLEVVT
HCV NS3/4A protease genotype 1b, sequence (P26663 1658-1711): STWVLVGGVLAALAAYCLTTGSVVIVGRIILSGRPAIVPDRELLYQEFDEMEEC

| Compound | EC50 [1] [nM] | IC50 [2] [nM] | EC50 ([1]; K+ salt) [nM] | IC50 ([2]; K+ salt) [nM] |
| --- | --- | --- | --- | --- |
| COCCC(C)(C)OC(=O)N[C@H]1CCCCC/C=C\[C@@H]2C[C@@]2(C(=O)NS(=O)(=O)C2(C)CC2)NC(=O)[C@@H]2C[C@@]3(CN2C1=O)CC(F)(F)c1c(c(C(C)C)nc2ccc(OC)cc12)O3 [Example 244, 4-methoxy-2-methylbutan-2-yl [(2S,6S,12Z,13aS,14aR,16aS)-1′,1′-difluoro-9′-methoxy-14a-{[(1-methylcyclopropyl)sulfonyl]carbamoyl}-5,16-dioxo-5′-(propan-2-yl)-1,1′,2′,5,6,7,8,9,10,11,13a,14,14a,15,16,16a-hexadecahydrospiro[cyclopropa[e]pyrrolo[1,2-a][1,4]diazacyclopentadecine-2,3′-pyrano[2,3-c]quinolin]-6-yl]carbamate] | 2.89 | 0.008 | – | – |
| COc1ccc2nc(C(C)C)c3c(c2c1)C(F)(F)C[C@]1(C[C@H]2C(=O)N[C@]4(C(=O)NS(=O)(=O)C5(C)CC5)C[C@H]4/C=C\CCCCC[C@H](NC(=O)OC(C)(C)CCS(C)(=O)=O)C(=O)N2C1)O3 [Example 245, 2-methyl-4-(methylsulfonyl)butan-2-yl [(2S,6S,12Z,13aS,14aR,16aS)-1′,1′-difluoro-9′-methoxy-14a-{[(1-methylcyclopropyl)sulfonyl]carbamoyl}-5,16-dioxo-5′-(propan-2-yl)-1,1′,2′,5,6,7,8,9,10,11,13a,14,14a,15,16,16a-hexadecahydrospiro[cyclopropa[e]pyrrolo[1,2-a][1,4]diazacyclopentadecine-2,3′-pyrano[2,3-c]quinolin]-6-yl]carbamate] | – | – | 13.4 | 0.025 |
| Cc1nc2ccc(OC(F)(F)F)cc2c2c1O[C@]1(CC2)C[C@H]2C(=O)N[C@]3(C(=O)NS(=O)(=O)C4(C)CC4)C[C@H]3/C=C\CCCCC[C@H](NC(=O)N3CCCC3)C(=O)N2C1 [Example 246, (2R,6S,12Z,13aS,14aR,16aS)-5′-methyl-N-[(1-methylcyclopropyl)sulfonyl]-5,16-dioxo-6-[(pyrrolidin-1-ylcarbonyl)amino]-9′-(trifluoromethoxy)-1,1′,2′,6,7,8,9,10,11,13a,14,15,16,16a-tetradecahydrospiro[cyclopropa[e]pyrrolo[1,2-a][1,4]diazacyclopentadecine-2,3′-pyrano[2,3-c]quinoline]-14a(5H)-carboxamide] | 17.4 | 0.004 | – | – |
| COc1ccc2nc(C3CC3)c3c(c2c1)C(F)(F)C[C@]1(C[C@H]2C(=O)N[C@]4(C(=O)NS(=O)(=O)C5(C)CC5)C[C@H]4/C=C\CCCCC[C@H](NC(=O)OCC(C)C)C(=O)N2C1)O3 [Example 248, 2-methylpropyl [(2S,6S,12Z,13aS,14aR,16aS)-5′-cyclopropyl-1′,1′-difluoro-9′-methoxy-14a-{[(1-methylcyclopropyl)sulfonyl]carbamoyl}-5,16-dioxo-1,1′,2′,5,6,7,8,9,10,11,13a,14,14a,15,16,16a-hexadecahydrospiro[cyclopropa[e]pyrrolo[1,2-a][1,4]diazacyclopentadecine-2,3′-pyrano[2,3-c]quinolin]-6-yl]carbamate] | – | – | 14.7 | 0.026 |
| COc1ccc2nc(C3CC3)c3c(c2c1)C(F)(F)C[C@]1(C[C@H]2C(=O)N[C@]4(C(=O)NS(=O)(=O)C5(C)CC5)C[C@H]4/C=C\CCCCC[C@H](NC(=O)O[C@H](C)C(C)C)C(=O)N2C1)O3 [Example 249, (2R)-3-methylbutan-2-yl [(2S,6S,12Z,13aS,14aR,16aS)-5′-cyclopropyl-1′,1′-difluoro-9′-methoxy-14a-{[(1-methylcyclopropyl)sulfonyl]carbamoyl}-5,16-dioxo-1,1′,2′,5,6,7,8,9,10,11,13a,14,14a,15,16,16a-hexadecahydrospiro[cyclopropa[e]pyrrolo[1,2-a][1,4]diazacyclopentadecine-2,3′-pyrano[2,3-c]quinolin]-6-yl]carbamate] | – | – | 14.6 | 0.02 |
| COc1ccc2nc(C3CC3)c3c(c2c1)C(F)(F)C[C@]1(C[C@H]2C(=O)N[C@]4(C(=O)NS(=O)(=O)C5(C)CC5)C[C@H]4/C=C\CCCCC[C@H](NC(=O)O[C@@H](C)C(C)C)C(=O)N2C1)O3 [Example 250, (2S)-3-methylbutan-2-yl [(2S,6S,12Z,13aS,14aR,16aS)-5′-cyclopropyl-1′,1′-difluoro-9′-methoxy-14a-{[(1-methylcyclopropyl)sulfonyl]carbamoyl}-5,16-dioxo-1,1′,2′,5,6,7,8,9,10,11,13a,14,14a,15,16,16a-hexadecahydrospiro[cyclopropa[e]pyrrolo[1,2-a][1,4]diazacyclopentadecine-2,3′-pyrano[2,3-c]quinolin]-6-yl]carbamate] | 6.5 | 0.024 | – | – |
| Cc1nc2ccc(C(F)(F)F)cc2c2c1O[C@]1(CC2)C[C@H]2C(=O)N[C@]3(C(=O)NS(=O)(=O)C4(C)CC4)C[C@H]3/C=C\CCCCC[C@H](NC(=O)OC(C)(C)C)C(=O)N2C1 [Example 251, tert-butyl [(2R,6S,12Z,13aS,14aR,16aS)-5′-methyl-14a-{[(1-methylcyclopropyl)sulfonyl]carbamoyl}-5,16-dioxo-9′-(trifluoromethyl)-1,1′,2′,5,6,7,8,9,10,11,13a,14,14a,15,16,16a-hexadecahydrospiro[cyclopropa[e]pyrrolo[1,2-a][1,4]diazacyclopentadecine-2,3′-pyrano[2,3-c]quinolin]-6-yl]carbamate] | 14.3 | 0.021 | – | – |
| Cc1nc2ccc(C(F)(F)F)cc2c2c1O[C@]1(CC2)C[C@H]2C(=O)N[C@]3(C(=O)NS(=O)(=O)C4(C)CC4)C[C@H]3/C=C\CCCCC[C@H](NC(=O)OC3CCCC3)C(=O)N2C1 [Example 252, cyclopentyl [(2R,6S,12Z,13aS,14aR,16aS)-5′-methyl-14a-{[(1-methylcyclopropyl)sulfonyl]carbamoyl}-5,16-dioxo-9′-(trifluoromethyl)-1,1′,2′,5,6,7,8,9,10,11,13a,14,14a,15,16,16a-hexadecahydrospiro[cyclopropa[e]pyrrolo[1,2-a][1,4]diazacyclopentadecine-2,3′-pyrano[2,3-c]quinolin]-6-yl]carbamate] | 44.4 | 0.01 | – | – |
| COc1ccc2nc(C)c3c(c2c1)CC[C@]1(C[C@H]2C(=O)N[C@]4(C(=O)NS(=O)(=O)C5(C)CC5)C[C@H]4/C=C\CCCCC[C@H](NC(=O)OC(C)(C)C(F)(F)F)C(=O)N2C1)O3 [Example 254, 1,1,1-trifluoro-2-methylpropan-2-yl [(2R,6S,12Z,13aS,14aR,16aS)-9′-methoxy-5′-methyl-14a-{[(1-methylcyclopropyl)sulfonyl]carbamoyl}-5,16-dioxo-1,1′,2′,5,6,7,8,9,10,11,13a,14,14a,15,16,16a-hexadecahydrospiro[cyclopropa[e]pyrrolo[1,2-a][1,4]diazacyclopentadecine-2,3′-pyrano[2,3-c]quinolin]-6-yl]carbamate] | – | – | 1.58 | 0.01 |
| Cc1nc2ccc(OC(F)F)cc2c2c1O[C@]1(CC2)C[C@H]2C(=O)N[C@]3(C(=O)NS(=O)(=O)C4(C)CC4)C[C@H]3/C=C\CCCCC[C@H](NC(=O)OC(C)(C)C)C(=O)N2C1 [Example 256, tert-butyl [(2R,6S,12Z,13aS,14aR,16aS)-9′-(difluoromethoxy)-5′-methyl-14a-{[(1-methylcyclopropyl)sulfonyl]carbamoyl}-5,16-dioxo-1,1′,2′,5,6,7,8,9,10,11,13a,14,14a,15,16,16a-hexadecahydrospiro[cyclopropa[e]pyrrolo[1,2-a][1,4]diazacyclopentadecine-2,3′-pyrano[2,3-c]quinolin]-6-yl]carbamate] | 3.08 | 0.005 | – | – |
